What was measured:
[1] = system: Erysiphe graminis f.sp. tritici; assay: Erysiphe graminis f.sp. tritici (wheat powdery mildew) leaf disk assay; format: in vivo; conditions: Blumeria graminis, foliar, 96 h, preventive, four days after inoculation, read-out: control of fungal infection, Erysiphe graminis fsp. tritici
[2] = system: Puccinia recondita f.sp. tritici; assay: Puccinia recondita f.sp. tritici (wheat brown rust) leaf disk assay; format: in vivo; conditions: foliar, 216 h, preventive, nine days after inoculation, read-out: control of fungal infection, Puccinia recondita f.sp. tritici

| SMILES | pest or weed control at 200 ppm [1] | pest or weed control at 200 ppm [2] |
| --- | --- | --- |
| CCc1ncnc(N2C3CCC2CC(=NOCc2ccc4ccccc4n2)C3)c1Cl [Example 5.89] | ≥ 80% | ≥ 80% |
| CCc1ncnc(N2C3CCC2CC(CC(=O)NC(C)c2ccccc2)C3)c1Cl (centres unmarked) [Example 7.31] | – | ≥ 80% |
| CCc1ncnc(N2C3CCC2CC(=NOCc2cccc(CCl)c2)C3)c1Cl [Example 5.45] | ≥ 80% | ≥ 80% |
| CCc1ncnc(N2C3CCC2CC(=NOCc2cccc(Cl)c2)C3)c1Cl [Example 5.37] | ≥ 80% | ≥ 80% |
| CCc1ncnc(N2C3CCC2CC(=NOCc2c(F)c(F)c(F)c(F)c2F)C3)c1Cl [Example 5.84] | ≥ 80% | ≥ 80% |
| CCc1ncnc(N2C3CCC2CC(=NOCc2cccc(OC(F)F)c2)C3)c1Cl [Example 5.65] | ≥ 80% | ≥ 80% |
| COc1cc(CON=C2CC3CCC(C2)N3c2ncnc3sccc23)nc(N)n1 [Example 5.172] | ≥ 80% | ≥ 80% |
| CCc1ncnc(N2C3CCC2CC(=NOCc2ccccc2I)C3)c1Cl [Example 5.46] | ≥ 80% | ≥ 80% |
| CCc1ncnc(N2C3CCC2CC(=NOCc2cc(F)c(F)c(F)c2)C3)c1Cl [Example 5.67] | ≥ 80% | ≥ 80% |
| CSc1nc(Cl)c(-c2ccccc2)c(ON=C2CC3CCC(C2)N3c2ncnc3sccc23)n1 [Example 5.254] | – | ≥ 80% |
| Ic1ccccc1CON=C1CC2CCC(C1)N2c1ncnc2sccc12 [Example 5.201] | ≥ 80% | ≥ 80% |
| CCc1ncnc(N2C3CCC2CC(=NOCc2cccc(Oc4ccccc4)c2)C3)c1Cl [Example 5.18] | ≥ 80% | ≥ 80% |
| CC(NC(=O)CC1CC2CCC(C1)N2c1ncnc2sccc12)c1ccccc1 (centres unmarked) [Example 7.13] | – | ≥ 80% |
| CCc1ncnc(N2C3CCC2CC(=CC(=O)NC(C)c2ccccc2)C3)c1Cl (centres unmarked) [Example 3.10] | – | ≥ 80% |
| CCc1ncnc(N2C3CCC2CC(=NOCc2cc(F)ccc2Br)C3)c1Cl [Example 5.83] | – | ≥ 80% |
| Fc1cc(Cl)cnc1ON=C1CC2CCC(C1)N2c1ncnc2sccc12 [Example 5.182] | ≥ 80% | ≥ 80% |
| CCc1ncnc(N2C3CCC2CC(=NOCc2cc(F)cc(F)c2F)C3)c1Cl [Example 5.80] | ≥ 80% | ≥ 80% |
| CC(=O)CCc1ccc(OC2C[C@H]3CC[C@@H](C2)N3c2ncnc3sccc23)cc1 (some centres unmarked) [Example 2.40] | – | ≥ 80% |
| CCc1ncnc(N2C3CCC2CC(=NOCc2cccc(Cl)c2Cl)C3)c1Cl [Example 5.59] | ≥ 80% | ≥ 80% |
| Fc1ccc(OC2C[C@H]3CC[C@@H](C2)N3c2ncnc3sccc23)cc1F (some centres unmarked) [Example 1.18] | ≥ 80% | ≥ 80% |
| C#CCN(CC#C)C1C[C@H]2CC[C@@H](C1)N2c1ncnc2sccc12 (some centres unmarked) [Example 4.15] | – | ≥ 80% |
| Fc1cc2c(c(CON=C3CC4CCC(C3)N4c3ncnc4sccc34)c1)OCOC2 [Example 5.257] | ≥ 80% | ≥ 80% |
| CCCNC(=O)CC1CC2CCC(C1)N2c1ncnc(CC)c1Cl (centres unmarked) [Example 7.30] | – | ≥ 80% |
| c1ccc(-c2ccc(CON=C3CC4CCC(C3)N4c3ncnc4sccc34)cc2)cc1 [Example 5.175] | ≥ 80% | ≥ 80% |

| SMILES | pest or weed control at 200 ppm [1] | pest or weed control at 200 ppm [2] |
| --- | --- | --- |
| Fc1c(F)c(F)c(CON=C2CC3CCC(C2)N3c2ncnc3sccc23)c(F)c1F [Example 5.225] | ≥ 80% | ≥ 80% |
| COCc1ncnc(N2[C@@H]3CC[C@H]2CC(Oc2cccc(C(F)(F)F)n2)C3)c1OC (some centres unmarked) [Example 2.137] | ≥ 80% | ≥ 80% |
| CCc1ncnc(N2C3CCC2CC(=NOCc2cc(C)cc(C)c2)C3)c1Cl [Example 5.11] | – | ≥ 80% |
| Fc1cc(CON=C2CC3CCC(C2)N3c2ncnc3sccc23)cc(F)c1F [Example 5.208] | ≥ 80% | ≥ 80% |
| CCCOC(=O)c1ccc(OC2C[C@H]3CC[C@@H](C2)N3c2ncnc3sccc23)cc1 (some centres unmarked) [Example 2.226] | – | ≥ 80% |
| CCc1ncnc(N2C3CCC2CC(=NOCc2cc(F)cc4c2OCOC4)C3)c1Cl [Example 5.121] | ≥ 80% | ≥ 80% |
| CCc1ncnc(N2C3CCC2CC(=NOCc2ccc(OCc4ccccc4)cc2)C3)c1Cl [Example 5.64] | ≥ 80% | ≥ 80% |
| CCc1ncnc(N2C3CCC2CC(=NOCc2ccccc2-c2ccccc2)C3)c1Cl [Example 5.35] | ≥ 80% | ≥ 80% |
| CCc1ncnc(N2C3CCC2CC(=NOCC2COc4ccccc4O2)C3)c1Cl (centres unmarked) [Example 5.93] | ≥ 80% | ≥ 80% |
| FC(F)(F)Sc1ccc(CON=C2CC3CCC(C2)N3c2ncnc3sccc23)cc1 [Example 5.230] | ≥ 80% | ≥ 80% |
| CCc1ncnc(N2C3CCC2CC(=NOCc2cccc(Br)c2)C3)c1Cl [Example 5.39] | ≥ 80% | ≥ 80% |
| CCn1nnc(-c2ccc(CON=C3CC4CCC(C3)N4c3ncnc4sccc34)cc2)n1 [Example 5.247] | ≥ 80% | ≥ 80% |
| c1ccc(-c2nnco2)c(OC2C[C@H]3CC[C@@H](C2)N3c2ncnc3sccc23)c1 (some centres unmarked) [Example 2.68] | ≥ 80% | – |
| CCc1ncnc(N2[C@@H]3CC[C@H]2CC(Oc2cccc(F)c2)C3)c1Cl (some centres unmarked) [Example 2.117] | ≥ 80% | – |
| Cc1nsc(Oc2ccc(OC3C[C@H]4CC[C@@H](C3)N4c3ncnc4scc(C)c34)cc2)n1 (some centres unmarked) [Example 2.72] | ≥ 80% | – |
| CCc1ncnc(N2[C@@H]3CC[C@H]2CC(Oc2ccc(C(=O)c4ccccc4)cc2)C3)c1Cl (some centres unmarked) [Example 2.141] | ≥ 80% | – |
| O=C(Cc1ccccc1)c1ccc(OC2C[C@H]3CC[C@@H](C2)N3c2ncnc3sccc23)cc1 (some centres unmarked) [Example 1.257] | – | ≥ 80% |
| N#Cc1ccccc1-c1ccc(CON=C2CC3CCC(C2)N3c2ncnc3sccc23)cc1 [Example 5.206] | – | ≥ 80% |
| C(#Cc1ccccc1)CC=C1CC2CCC(C1)N2c1ncnc2sccc12 [Example 3.26] | – | ≥ 80% |
| CCc1ncnc(N2[C@@H]3CC[C@H]2CC(Oc2ccc(C4CCc5ccccc54)cc2)C3)c1Cl (some centres unmarked) [Example 2.173] | ≥ 80% | – |
| CCc1ncnc(N2C3CCC2CC(=NOCc2ccccc2CCl)C3)c1Cl [Example 5.42] | ≥ 80% | – |
| c1ccc2c(c1)CCC2c1ccc(OC2C[C@H]3CC[C@@H](C2)N3c2ncnc3sccc23)cc1 (some centres unmarked) [Example 2.53] | ≥ 80% | – |
| Cn1cc(C(=O)N2[C@@H]3CC[C@H]2CC(Oc2cccc(C(F)(F)F)n2)C3)c(C(F)(F)F)c1 (some centres unmarked) [Example 2.197] | – | ≥ 80% |
| Fc1cccc(OC2C[C@H]3CC[C@@H](C2)N3c2ncnc3sccc23)c1F (some centres unmarked) [Example 2.24] | ≥ 80% | – |
